Values after ≈ are worked out from the molar mass of the structure shown.
Key:
A549 [1] = test: In vitro cytotoxicity against human lung carcinoma cell line A-549; assay type: functional; details: read-out: ED50 (the source's name)
HT-29 [2] = test: In vitro cytotoxicity against human colon adenocarcinoma cell line HT-29; assay type: functional; details: read-out: ED50 (the source's name)
MCF7 [3] = test: In vitro cytotoxicity against human breast carcinoma cell line MCF-7; assay type: functional; details: read-out: ED50 (the source's name)
SK-MEL-5 [4] = test: In vitro cytotoxicity against human melanoma, metastatic to auxiliary node (SK-MEL-5); assay type: functional; details: read-out: ED50 (the source's name)
Malme-3M [5] = test: In vitro cytotoxicity against human melanoma, metastatic to lung using MTT assay (MALME-3M); assay type: functional; details: read-out: ED50 (the source's name)
HT-29 [6] = test: In vitro cytotoxicity against human colon adenocarcinoma cell line HT-29 at 3.0*10e-5 M; assay type: functional; details: read-out: ED50 (the source's name)
Malme-3M [7] = test: In vitro cytotoxicity against human melanoma, metastatic to lung using MTT assay (MALME-3M) at 5.5*10e-5M; assay type: functional; details: read-out: ED50 (the source's name)
SK-MEL-5 [8] = test: In vitro cytotoxicity against human melanoma, metastatic to auxiliary node (SK-MEL-5) at 3.2*10e-5M; assay type: functional; details: read-out: ED50 (the source's name)
Malme-3M [9] = test: In vitro cytotoxicity against human melanoma, metastatic to lung using MTT assay (MALME-3M) at 6.8*10e-5M; assay type: functional
HT-29 [10] = test: In vitro cytotoxicity against human colon adenocarcinoma cell line HT-29 at 5.7*10e-5M; assay type: functional; details: HT-29, read-out: ED50
SK-MEL-5 [11] = test: In vitro cytotoxicity against human melanoma, metastatic to auxiliary node (SK-MEL-5) at 5.1*10e-5M; assay type: functional; details: SK-MEL-5, read-out: ED50
A549 [12] = test: In vitro cytotoxicity against human lung carcinoma cell line A-549 at 3.6*10e-5 M; assay type: functional; details: A549, read-out: ED50
MCF7 [13] = test: In vitro cytotoxicity against human breast carcinoma cell line MCF-7 at 4.4*10e-5M; assay type: functional; details: MCF7, read-out: ED50
P388 = test: In vitro cytotoxicity against P388 cell line; 10e-7-10e-9 ug/mL; assay type: functional; details: Mus musculus, read-out: ED50 (the source's name)
MCF7 [14] = test: In vitro cytotoxicity against human breast carcinoma cell line MCF-7 at 8.1*10e-5M; assay type: functional; details: read-out: ED50 (the source's name)
A549 [15] = test: In vitro cytotoxicity against human lung carcinoma cell line A-549 at 7.4*10e-5 M; assay type: functional; details: read-out: ED50 (the source's name)
HT-29 [16] = test: In vitro cytotoxicity against human colon adenocarcinoma cell line HT-29 at 1.6*10e-5M; assay type: functional; details: read-out: ED50 (the source's name)
HT-29 [17] = test: In vitro cytotoxicity against human colon adenocarcinoma cell line HT-29 at 5.9*10e-5M; assay type: functional; details: read-out: ED50 (the source's name)
A549 [18] = test: In vitro cytotoxicity against human lung carcinoma cell line A-549 at 5.0*10e-5M; assay type: functional; details: read-out: ED50 (the source's name)
Malme-3M [19] = test: In vitro cytotoxicity against human melanoma, metastatic to lung using MTT assay (MALME-3M) at 4.7*10e-5M; assay type: functional; details: read-out: ED50 (the source's name)
SK-MEL-5 [20] = test: In vitro cytotoxicity against human melanoma, metastatic to auxiliary node (SK-MEL-5) at 2.6*10e-5M; assay type: functional; details: read-out: ED50 (the source's name)
MCF7 [21] = test: In vitro cytotoxicity against human breast carcinoma cell line MCF-7 at 5.6*10e-5M; assay type: functional; details: read-out: ED50 (the source's name)
NRKE [22] = test: In vitro cytotoxicity expressed as % cell kill against normal rat kidney epithelial cell (NRKE) at a dose of 3.3 uM; assay type: functional
A549 [23] = test: In vitro cytotoxicity against human lung carcinoma cell line A-549 at 6.1*10e-5 M; assay type: functional; details: read-out: ED50 (the source's name)
MCF7 [24] = test: In vitro cytotoxicity against human breast carcinoma cell line MCF-7 at 4.9*10e-5M; assay type: functional; details: read-out: ED50 (the source's name)
Mus musculus [25] = species on record: Mus musculus; test: Maximum tolerated dose (MTD) was reported; assay type: functional
SK-MEL-5 [26] = test: In vitro cytotoxicity against human melanoma, metastatic to auxiliary node (SK-MEL-5) at 6.3*10e-5M; assay type: functional; details: read-out: ED50 (the source's name)
HT-29 [27] = test: In vitro cytotoxicity against human colon adenocarcinoma cell line HT-29 at 1.2*10e-5M; assay type: functional; details: read-out: ED50 (the source's name)
NRK [28] = test: In vitro cytotoxicity expressed as % cell kill against rat transformed cell line K/1-NRK at a dose of 3.3 uM; assay type: functional
NRK [29] = test: In vitro cytotoxicity expressed as % cell kill against rat transformed cell line H/1/2-NRK at a dose of 33 uM; assay type: functional
NRK [30] = test: In vitro cytotoxicity expressed as % cell kill against rat transformed cell line H/1/2-NRK at a dose of 3.3 uM; assay type: functional
Mus musculus [31] = test: Percent inhibition was determined against H/1/2-NRK tumor at a dose of 150 mg/kg/day in mice; assay type: functional
Mus musculus [32] = test: Percent inhibition was determined against K/1-NRK tumor at a dose of 150 mg/kg/day in mice; assay type: functional
NRKE [33] = test: In vitro cytotoxicity expressed as % cell kill against normal rat kidney epithelial cell (NRKE) at a dose of 33 uM; assay type: functional
NRK [34] = test: In vitro cytotoxicity expressed as % cell kill against ras transformed cell line K/1-NRK at a dose of 33 uM; assay type: functional, Rattus norvegicus
Mus musculus [35] = test: Percent inhibition was determined against K/1-NRK tumor at a dose of 75 mg/kg/day in mice; assay type: functional

Structure (SMILES): CCCCCCCC[C@H]1CC[C@@]2(C)C3CC[C@@]4(C)Cc5nc6c(nc5C[C@]4(C)[C@@]3(C)CC[C@]12C)C[C@]1(C)CCC2[C@](C)(CC[C@]3(C)[C@@H](CCCCCCCC)CC[C@@]23C)[C@@]1(C)C6 (stereo partly specified)
- EC50 (A549 [1]): > 100 µg/mL
- EC50 (HT-29 [2]): > 100 µg/mL
- EC50 (MCF7 [3]): > 100 µg/mL
- EC50 (SK-MEL-5 [4]): > 100 µg/mL
- EC50 (Malme-3M [5]): > 100 µg/mL

Structure (SMILES): C[C@H]1CC[C@@]2(OC1)O[C@H]1C[C@@]3(C)C4CC[C@@]5(C)Cc6nc7c(nc6C[C@]5(C)C4=C(O)C(=O)[C@]3(C)[C@H]1[C@@H]2C)C[C@]1(C)CCC2C(=C(O)C(=O)[C@]3(C)[C@@H]4[C@H](C[C@@]23C)O[C@]2(CC[C@H](C)CO2)[C@H]4C)[C@@]1(C)C7 (stereo partly specified)
- EC50 (HT-29 [6]): 26 µg/mL (≈ 27.9 µM)
- EC50 (Malme-3M [7]): 53 µg/mL (≈ 56.8 µM)
- EC50 (A549 [1]): > 100 µg/mL
- EC50 (SK-MEL-5 [8]): 28 µg/mL (≈ 30 µM)
- EC50 (MCF7 [3]): > 100 µg/mL

Structure (SMILES): C[C@@]12CCC3[C@](C)(CC[C@]4(C)[C@@H](O)CC[C@@]34C)[C@@]1(C)Cc1nc3c(nc1C2)C(N=[N+]=[N-])[C@@]1(C)[C@@H](CCC2[C@]1(C)CC[C@]1(C)[C@@H](O)CC[C@@]21C)C3 (stereo partly specified)
- EC50 (Malme-3M [9]; read-out: ED50): 42 µg/mL (≈ 61.4 µM)
- EC50 (HT-29 [10]): 35 µg/mL (≈ 51.2 µM)
- EC50 (SK-MEL-5 [11]): 31 µg/mL (≈ 45.3 µM)
- EC50 (A549 [12]): 22 µg/mL (≈ 32.2 µM)
- EC50 (MCF7 [13]): 27 µg/mL (≈ 39.5 µM)

Structure (SMILES): C[C@@H]1[C@]2(O[C@H]3C=C4C5CC[C@@]6(C)Cc7nc8c(nc7C[C@]6(C)[C@@]5(C)C[C@@H](O)[C@]4(C)[C@]31O)C[C@]1(C)CCC3C4=CC[C@@H]5[C@H](C)[C@@]6(OC[C@]45C(=O)C[C@@H]3[C@@]1(C)C8)OC(C)(C)C[C@H]6O)O[C@](C)(CO)C[C@H]2O (stereo partly specified) [CEPHALOSATIN]
- EC50 (P388): 0.001 ng/mL (≈ 1.05e-06 µM)

Structure (SMILES): C[C@@]12CCC3[C@](C)(CC[C@]4(C)C(=O)CC[C@@]34C)[C@@]1(C)Cc1nc3c(nc1C2)C[C@@]1(C)[C@@](C)(CCC2[C@]1(C)CC[C@]1(C)C(=O)CC[C@@]21C)C3 (stereo partly specified)
- EC50 (MCF7 [14]): 46 µg/mL (≈ 70.4 µM)
- EC50 (A549 [15]): 42 µg/mL (≈ 64.3 µM)
- EC50 (HT-29 [16]): 94 µg/mL (≈ 144 µM)
- EC50 (SK-MEL-5 [4]): > 100 µg/mL
- EC50 (Malme-3M [5]): > 100 µg/mL

Structure (SMILES): C[C@@]12CCC3[C@](C)(CC[C@]4(C)C5(CC[C@@]34C)OCCO5)[C@@]1(C)Cc1nc3c(nc1C2)C[C@@]1(C)[C@@](C)(CCC2[C@]1(C)CC[C@]1(C)C4(CC[C@@]21C)OCCO4)C3 (stereo partly specified)
- EC50 (HT-29 [17]): 39 µg/mL (≈ 52.6 µM)
- EC50 (A549 [18]): 33 µg/mL (≈ 44.5 µM)
- EC50 (Malme-3M [19]): 31 µg/mL (≈ 41.8 µM)
- EC50 (SK-MEL-5 [20]): 17 µg/mL (≈ 22.9 µM)
- EC50 (MCF7 [21]): 37 µg/mL (≈ 49.9 µM)

Structure (SMILES): C[C@@]12CCC3[C@](C)(CC[C@]4(C)[C@@H](O)CC[C@@]34C)[C@@]1(C)Cc1nc3c(nc1C2)C[C@@]1(C)[C@@](C)(CCC2[C@]1(C)CC[C@]1(C)[C@@H](O)CC[C@@]21C)C3 (stereo partly specified)
- Cell kill (NRKE [22]): 100%
- EC50 (A549 [23]): 35 µg/mL (≈ 53.3 µM)
- EC50 (Malme-3M [9]; read-out: ED50 (the source's name)): 39 µg/mL (≈ 59.4 µM)
- EC50 (MCF7 [24]): 28 µg/mL (≈ 42.6 µM)
- MTD (Mus musculus [25]): 150 mg/kg/day
- EC50 (SK-MEL-5 [26]): 36 µg/mL (≈ 54.8 µM)
- EC50 (HT-29 [27]): 7 µg/mL (≈ 10.7 µM)
- Cell kill (NRK [28]): 100%
- Cell kill (NRK [29]): 100%
- Cell kill (NRK [30]): 100%
- inhibition in vivo at 150 mg/kg/day (Mus musculus [31]): 59%
- inhibition in vivo at 150 mg/kg/day (Mus musculus [32]): 51%
- Cell kill (NRKE [33]): 100%
- Cell kill (NRK [34]): 100%
- inhibition in vivo at 75 mg/kg/day (Mus musculus [35]): 28%
